In this experiment the target is SARM1 (50-724) (Homo sapiens (Human), UniProt Q6SZW1). Nature of the experiment: SARM1 (50-724) enzymatic assay. In kind it is biochemical. The conditions noted are these: SARM1 inhibitory activity; 2 nM SARM1 (50-724), 200 μM NMN activator, 100 μM NAD+ substrate, 1 h, LC-MS/MS. On the procedure: The enzymatic assay was performed in a 384-well plate using Dulbecco's PBS buffer as the reaction buffer. Purified SARM1 (50-724) with a final concentration of 2 nM was pre-incubated with the test compound at 1% DMSO final assay concentration for 15 min at room temperature. The reaction was initiated by adding the mixture of 200 μM NMN as activator and 100 μM NAD^+ as substrate. After 1 h of incubation at room temperature, the reaction was terminated with 10 times volume of 70% acetonitrile, then centrifuged at 3800 rpm for 10 min. The samples were analyzed using LC-MS/MS after diluted to the proper concentration by 10 mM ammonium acetate (pH 9.75).
Sequence of SARM1 (50-724) (Q6SZW1 50-724): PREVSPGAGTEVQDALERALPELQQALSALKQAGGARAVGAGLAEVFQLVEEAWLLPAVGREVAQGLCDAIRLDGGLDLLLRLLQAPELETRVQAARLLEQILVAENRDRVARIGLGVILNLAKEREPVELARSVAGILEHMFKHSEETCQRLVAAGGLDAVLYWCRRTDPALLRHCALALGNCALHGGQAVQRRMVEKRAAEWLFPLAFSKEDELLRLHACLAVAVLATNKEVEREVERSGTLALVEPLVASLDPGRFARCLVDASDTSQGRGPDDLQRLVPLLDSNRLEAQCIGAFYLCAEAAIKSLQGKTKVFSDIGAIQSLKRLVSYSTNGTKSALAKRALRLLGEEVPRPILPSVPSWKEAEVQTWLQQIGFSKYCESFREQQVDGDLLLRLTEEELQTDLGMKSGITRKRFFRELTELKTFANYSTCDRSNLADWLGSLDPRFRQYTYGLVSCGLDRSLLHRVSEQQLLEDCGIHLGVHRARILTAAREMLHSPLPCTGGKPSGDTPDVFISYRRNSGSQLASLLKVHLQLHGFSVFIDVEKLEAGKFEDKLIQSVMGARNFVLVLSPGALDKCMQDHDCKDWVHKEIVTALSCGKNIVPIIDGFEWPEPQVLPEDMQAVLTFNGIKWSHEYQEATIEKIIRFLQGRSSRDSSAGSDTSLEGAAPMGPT
Usually IC50 stands for the concentration at which inhibition is half-maximal. The compound `O=c1cc(-c2cccnc2)cc[nH]1` [Compound 1, [3,4′-bipyridin]-2′(1′H)-one] registered a 50% inhibitory concentration (IC50) of 5 to 15 µM.
Then `Cc1ccncc1-c1cc[nH]c(=O)c1` [Compound 2, 4-methyl-[3,4′-bipyridin]-2′(1′H)-one], with below 5 µM.
`COc1ccncc1-c1cc[nH]c(=O)c1` [Compound 3, 4-methoxy-[3,4′-bipyridin]-2′(1′H)-one] returned an IC50 below 5 µM.
`Cc1ccncc1-c1cccc(O)c1` [Compound 4, 3-(4-methylpyridin-3-yl)phenol] displayed an IC50 below 5 µM.
`Cc1ccncc1-c1cc(O)cc(C#N)c1` [Compound 5, 3-hydroxy-5-(4-methylpyridin-3-yl)benzonitrile] returned a 50% inhibitory concentration (IC50) below 5 µM.
`Cc1ccncc1-c1ccc(O)c(C#N)c1` [Compound 6, 2-hydroxy-5-(4-methylpyridin-3-yl)benzonitrile] yielded a concentration for half-maximal inhibition (IC50) below 5 µM.
Regarding `Cc1ccncc1-c1cccc(S(N)(=O)=O)c1` [Compound 7, 3-(4-methylpyridin-3-yl)benzenesulfonamide], the IC50 was below 5 µM.
Regarding `Cc1ccncc1-c1ccc(CN)cc1` [Compound 8, (4-(4-methylpyridin-3-yl)phenyl)methanamine], the IC50 was below 5 µM.
`Cc1ccncc1-c1ccc(O)cc1` [Compound 9, 4-(4-methylpyridin-3-yl)phenol]: the half-maximal inhibitory concentration (IC50) was below 5 µM.
With `Oc1cccc(-c2cccnc2)c1` [Compound 10, 3-(pyridin-3-yl)phenol], the IC50 was 15 to 30 µM.
Then `Cc1ccncc1-c1ccc(O)c(F)c1` [Compound 11, 2-fluoro-4-(4-methylpyridin-3-yl)phenol], with above 30 µM; and `Cc1ccncc1-c1ccc(O)cc1F` [Compound 12, 3-fluoro-4-(4-methylpyridin-3-yl)phenol], with above 30 µM.
`Cc1ccncc1-c1cccc(O)c1F` [Compound 13, 2-fluoro-3-(4-methylpyridin-3-yl)phenol] showed an IC50 below 5 µM.
Then `Cc1ccncc1-c1cc(O)ccc1F` [Compound 14, 4-fluoro-3-(4-methylpyridin-3-yl)phenol], with above 30 µM.
`Cc1ccncc1-c1ccc(O)c(Br)c1` [Compound 15, 2-bromo-4-(4-methylpyridin-3-yl)phenol] gave an IC50 below 5 µM.
Then `Cc1ccncc1-c1cc(O)cc(Br)c1` [Compound 16, 3-bromo-5-(4-methylpyridin-3-yl)phenol], with below 5 µM; and `Cc1ccncc1-c1ccc(Br)c(O)c1` [Compound 17, 2-bromo-5-(4-methylpyridin-3-yl)phenol], with below 5 µM; and `Cc1ccncc1-c1ccc2c(c1)C(=O)NCC2` [Compound 18, 7-(4-methylpyridin-3-yl)-3,4-dihydroisoquinolin-1(2H)-one], with 15 to 30 µM.
The result for `Cc1ccncc1-c1ccc(F)c(O)c1` [Compound 19, 2-fluoro-5-(4-methylpyridin-3-yl)phenol] reads 5 to 15 µM.
Regarding `Cc1ccncc1-c1cc(O)cc(F)c1` [Compound 20, 3-fluoro-5-(4-methylpyridin-3-yl)phenol], the half-maximal inhibitory concentration (IC50) was below 5 µM.
The result for `Cc1ccncc1-c1ccc2[nH]ccc2c1` [Compound 21, 5-(4-methylpyridin-3-yl)-1H-indole] reads below 5 µM; that for `Cc1ccncc1-c1ccc2cc[nH]c2c1` [Compound 23, 6-(4-methylpyridin-3-yl)-1H-indole], 15 to 30 µM; that for `Cc1ccncc1-c1ccc2[nH]ncc2c1` [Compound 24, 5-(4-methylpyridin-3-yl)-1H-indazole], below 5 µM.
The result for `Cc1ccncc1-c1ccc2[nH]cnc2c1` [Compound 25, 5-(4-methylpyridin-3-yl)-1H-benzo[d]imidazole] reads below 5 µM.
Then `Cc1ccncc1-c1cccc(O)c1C` [Compound 26, 2-methyl-3-(4-methylpyridin-3-yl)phenol], with above 30 µM.
Consider `Cc1ccncc1-c1cccc(O)c1Cl` [Compound 27, 2-chloro-3-(4methylpyridin-3-yl)phenol], for which the concentration for half-maximal inhibition (IC50) was above 30 µM.
Then `Cc1cc(-c2cnccc2C)ccc1O` [Compound 28, 2-methyl-4-(4-methylpyridin-3-yl)phenol], with below 5 µM.
`CCc1cc(-c2cnccc2C)ccc1O` [Compound 29, 2-ethyl-4-(4-methylpyridin-3-yl)phenol]: the IC50 is below 5 µM.
Compound `COc1cc(-c2cnccc2C)ccc1O` [Compound 30, 2-methoxy-4-(4-methylpyridin-3-yl)phenol] displayed an IC50 above 30 µM.
Compound `Cc1ccncc1-c1ccc(O)c(Cl)c1` [Compound 31, 2-chloro-4-(4-methylpyridin-3-yl)phenol] returned a half-inhibitory concentration (IC50) below 5 µM.
The result for `Cc1ccc(-c2cnccc2C)cc1O` [Compound 32, 2-methyl-5-(4-methylpyridin-3-yl)phenol] reads below 5 µM; that for `Cc1ccncc1-c1ccc2c(c1)CCN2` [Compound 33, 5-(4-methylpyridin-3-yl)indoline], 15 to 30 µM; that for `Cc1ccncc1-c1cc2cc[nH]c2cc1F` [Compound 34, 6-fluoro-5-(4-methylpyridin-3-yl)-1H-indole], above 30 µM.
Regarding `Cc1ccncc1-c1ccc(F)c(O)c1F` [Compound 35, 2,6-difluoro-3-(4-methylpyridin-3-yl)phenol], the IC50 is above 30 µM.
The compound `Cc1ccncc1-c1ccc2[nH]nnc2c1` [Compound 36, 5-(4-methylpyridin-3-yl)-1H-benzol[d][1,2,3]triazole] showed an IC50 below 5 µM.
`Cc1ccncc1-c1ccc2c(c1F)NC(=O)C2=O` [Compound 37, 7-fluoro-6-(4-methylpyridin-3-yl)indoline-2,3-dione] had a half-maximal inhibitory concentration (IC50) of 5 to 15 µM.
The result for `CC(=O)c1ccc(-c2cnccc2C)cc1O` [Compound 38, 1-(2-hydroxy-4-(4-methylpyridin-3-yl)phenyl)ethan-1-one] reads 5 to 15 µM.
Turning to `Cc1ccncc1-c1ccc(O)c(O)c1F` [Compound 39, 3-fluoro-4-(4-methylpyridin-3-yl)benzene-1,2-diol], the IC50 is 15 to 30 µM.
Turning to `Cc1ccncc1-c1ccc2[nH]c(=O)oc2c1` [Compound 40, 6-(4-methylpyridin-3-yl)benzo[d]oxazol-2(3H)-one], the IC50 was below 5 µM.
The compound `Cc1ccncc1-c1ccc2c(c1)CC(=O)N2` [Compound 41, 5-(4-methylpyridin-3-yl)indolin-2-one] gave an IC50 below 5 µM.
Then `Cc1ccncc1-c1ccc(N)c(O)c1` [Compound 42, 2-amino-5-(4-methylpyridin-3-yl)phenol], with below 5 µM.
The compound `Cc1ccncc1-c1ccc(O)c(N)c1` [Compound 43, 2-amino-4-(4-methylpyridin-3-yl)phenol] returned an IC50 of 5 to 15 µM.
`Cc1ccncc1-c1ccc2[nH]c(=O)[nH]c2c1` [Compound 44, 5-(4-methylpyridin-3-yl)-1,3-dihydro-2H-benzo[d]imidazol-2-one] showed an IC50 below 5 µM.
`Cc1ccncc1-c1ccc2c(c1)OCC(=O)N2` [Compound 45, 7-(4-methylpyridin-3-yl)-2H-benzo[b][1,4]oxazin-3(4H)-one] gave an IC50 of 5 to 15 µM.
In turn, `Cc1ccncc1-c1ccc2c(c1)CNC(=O)N2` [Compound 46, 6-(4-methylpyridin-3-yl)-3,4-dihydroquinazolin-2(1H)-one] gave an IC50 above 30 µM.
The result for `Cc1ccncc1-c1ccc(O)c(O)c1` [Compound 47, 4-(4-methylpyridin-3-yl)benzene-1,2-diol] reads below 5 µM; that for `Cc1ccncc1-c1cnc2[nH]ncc2c1` [Compound 48, 5-(4-methylpyridin-3-yl)-1H-pyrazolo[3,4-b]pyridine], 15 to 30 µM; that for `Cc1ccncc1-c1cc2cn[nH]c2cn1` [Compound 49, 5-(4-methylpyridin-3-yl)-1H-pyrazolo[3,4-c]pyridine], above 30 µM.
`Cc1ccncc1-c1ccc2[nH]ncc2n1` [Compound 50, 5-(4-methylpyridin-3-yl)-1H-pyrazolo[4,3-b]pyridine] displayed a half-inhibitory concentration (IC50) of 5 to 15 µM.
`Cc1ccncc1-c1ccc2c(c1)NC(=O)CO2` [Compound 51, 6-(4-methylpyridin-3-yl)-2H-benzo[b][1,4]oxazin-3(4H)-one] returned a half-maximal inhibitory concentration (IC50) below 5 µM.
In turn, `Cc1ccncc1-c1ccc2oc(=O)[nH]c2c1` [Compound 52, 5-(4-methylpyridin-3-yl)benzo[d]oxazol-2(3H)-one] registered a half-maximal inhibitory concentration (IC50) of 5 to 15 µM.
Turning to `Cc1ccncc1-c1ccc2c(c1)OCCN2` [Compound 53, 7-(4-methylpyridin-3-yl)-3,4-dihydro-2H-benzo[b][1,4]oxazine], the half-inhibitory concentration (IC50) is above 30 µM.
Then `Cc1ccncc1-c1ccc2c(c1)NCCO2` [Compound 54, 6-(4-methylpyridin-3-yl)-3,4-dihydro-2H-benzo[b][1,4]oxazine], with 15 to 30 µM; and `Cc1ccncc1-c1ccc2c(c1)NC(=O)C2` [Compound 55, 6-(4-methylpyridin-3-yl)indolin-2-one], with 15 to 30 µM.
The result for `Cc1ccncc1-c1cncc(O)c1` [Compound 56, 4′-methyl-[3,3′-bipyridin]-5-ol] reads 5 to 15 µM.
Then `Cc1ccncc1-c1ccc2[nH]c(=O)n(C)c2c1` [Compound 57, 1-methyl-6-(4-methylpyridin-3-yl)-1,3-dihydro-2H-benzo[d]imidazol-2-one], with 5 to 15 µM; and `Cc1ccncc1-c1cc(Cl)c2[nH]ncc2c1` [Compound 58, 7-chloro-5-(4-methylpyridin-3-yl)-1H-indazole], with 5 to 15 µM.
Regarding `Cc1ccncc1-c1ccc2c(c1)COC(=O)N2` [Compound 59, 6-(4-methylpyridin-3-yl)-1,4-dihydro-2H-benzo[d][1,3]oxazin-2-one], the IC50 was below 5 µM.

The record behind these values is US20250236613A1, “SARM1 MODULATORS, PREPARATIONS, AND USES THEREOF” (SIRONAX LTD., priority 2021, published 2025).
